Values of other authors as cited in patent US7419669B2, “Peptide epitopes common to antigens of the same multigene family” (Institut Gustave Roussy, priority 2002, dated 2008).

Tests used:
tumor cells = settings: MICONNET et al., 2000; cited from earlier work
[1] = biological target: HLA-B*3701 allele of MHC-I (Homo sapiens, UniProt P01889, A329T/A93T/A95T/C349S/D138N/D201E/D98Y/E176V/E187T/E204Q/E69T/G107R/H137Y/K202T/L119I/N104T/N87E/Q94N/R106L/R155S/R180D/S101D/S121R/V306I/Y123S/Y140F/Y33H/Y91S); settings: TANZARELLA et al., 1999; cited from earlier work

Row | Sequence | processing of the epitope by tumor cells (tumor cells) | binding to HLA-B*3701 [1]
1 | FLWGPRALV | not efficiently processed by tumor cells | –
2 | REPVTKAEML (listed as Homo sapiens) | – | binds to the HLA-B*3701 allele of MHC-I
